# Laboratory results as given in PMC4891657, “Orexin 2 Receptor Antagonism is Sufficient to Promote NREM and REM Sleep from Mouse to Man” (Scientific Reports, 2016).
# Several values for one entry are separate records, joined by “and”; a condition that tells them apart may be missing. Identical values can stand only once. Like-named read-outs stand apart in the source and are kept apart here.
# Experiments:
# [1] = Plasma exposure in dogs after oral dosing; format: in vivo, dog; details: for Cmax / Tmax / AUC(0-t): beagle, dog, plasma
# [2] = Safety and tolerability, PSG study; format: in vivo, human
# Text: In the ascending single-dose study, 52 AEs were considered to be related to the study drug, the most common of which was somnolence/sleepiness, drowsiness, and tiredness (15 of 16 subjects dosed with MK-1064), consistent with the intended pharmacological activity. […] In the PSG study, 13 of the 20 subjects enrolled reported ≥1 clinical AE. Of 24 clinical AEs reported, 18 were considered to be related to study treatment, all of which were mild or moderate in intensity. One report of transient sleep paralysis following MK-1064 250 mg was noted, while the most common MK-1064-related AEs were headache (3 subjects), nightmares (2 subjects) and dizziness (1 subject) (Supplementary Table 2).
# (§1) Twenty healthy male subjects between the ages of 18 and 45 years were recruited to a double-blind, randomized, 4-period, crossover study to evaluate the effects of single doses of MK-1064. Subjects were without a history of physical or mental illnesses, had no history of sleep abnormalities, and were not regularly taking medication. Subject inclusion required a sleep score ≤6 on the Pittsburgh Sleep Quality Index at the time of screening, and qualified subjects underwent a PSG screening prior to randomization to exclude those with latent sleep disturbances. In each of the 4 treatment periods, subjects were randomized to receive single doses of MK-1064 (50, 120, or 250 mg) or matching placebo according to a balanced crossover design (see Fig. 5). Briefly, 20 subjects were randomized to 4 panels (n = 5 each). Each panel then received each of the four treatments (placebo, 50, 120, 250 mg MK-1064) in 4 different study periods where each period allocated the 4 different treatments to the 4 different subject panels. Progression through each period rotated the 4 different treatments among the subject panels such that each panel ultimately received all 4 treatments. In all 4 study periods, subjects were admitted for a pre-dose habituation night. On the following treatment night, subjects were administered a single dose of study medication in a blinded manner approximately 1 hour before their habitual bedtime. Study medication was administered following a ≥4-hour fast. Dosing in different treatment periods was separated by a washout of at least 7 days for each subject. PSG recording commenced at 1 hour post-dose and continued during undisturbed sleep for 8 hours overnight. Visual scoring of each 30-sec epoch of PSG recording to wake or one of four sleep states (S1, S2, SWS, collectively referred to as NREM, and REM) was performed according to standard and established Rechtschaffen and Kales criteria. Obtained scores were then used to calculate efficacy assessment measures including latency to persistent sleep (LPS) (min), wake after sleep onset (WASO) (min), sleep efficiency (SE) (%), and total sleep time (TST) (min). LPS is the time from lights off to the first epoch of 20 consecutive epochs of non-wake stage; WASO is the time in wake stage between the onset of persistent sleep and the time of lights on; and SE is the proportion of time between lights off and lights on that was spent in sleep. In addition to efficacy parameters, latency to REM (LREM) (min), equal to the time from lights off to the first epoch of REM, and the proportion (%) of TST spent in NREM and REM were calculated. Estimation of the effects of treatment on PSG endpoints relative to placebo, including the calculation of confidence intervals and p-values were done using a mixed-effect statistical model typical for crossover studies. Specifically, logarithm of an analyzed endpoint represented the response variable, and treatment dose, treatment period, and carryover effect were fixed-effect explanatory variables. Subject effect was the random effect with the within-subject covariance assumed to be of the unstructured type. […] SAS/STAT® Version 9.3 software (SAS Institute, Cary NC) was used in the analysis.
# sleep = test: Polysomnography in healthy male subjects; format: in vivo, human
# Experimental: In the PSG study, subjects underwent 8-hour PSG recording periods beginning 1 hour after nighttime administration of MK-1064 (50, 120 and 250 mg) or placebo. […] Dose-dependence of the effects of MK-1064, while not evaluated statistically, was most pronounced with regard to LPS, LREM and REM sleep, and to a lesser extent, TST and WASO sleep (Fig. 7b).
# Figure 7 MK-1064 promotes sleep in healthy subjects. MK-1064 (50, 120 and 250 mg) or placebo were administered 1 hour prior to the normal resting phase in healthy subjects (N = 20), and PSG effects were monitored during the normal resting phase.
# as §1
# OX2R = target: T1, OX2R (Homo sapiens, UniProt O43614); format: in vivo, transgenic rats expressing human Hcrtr2; set-up: from tissue; host or cells: brain tissue lysate of male transgenic rats expressing human Hcrtr2 cDNA under the rat enolase promoter
# T1 sequence (O43614 1-444): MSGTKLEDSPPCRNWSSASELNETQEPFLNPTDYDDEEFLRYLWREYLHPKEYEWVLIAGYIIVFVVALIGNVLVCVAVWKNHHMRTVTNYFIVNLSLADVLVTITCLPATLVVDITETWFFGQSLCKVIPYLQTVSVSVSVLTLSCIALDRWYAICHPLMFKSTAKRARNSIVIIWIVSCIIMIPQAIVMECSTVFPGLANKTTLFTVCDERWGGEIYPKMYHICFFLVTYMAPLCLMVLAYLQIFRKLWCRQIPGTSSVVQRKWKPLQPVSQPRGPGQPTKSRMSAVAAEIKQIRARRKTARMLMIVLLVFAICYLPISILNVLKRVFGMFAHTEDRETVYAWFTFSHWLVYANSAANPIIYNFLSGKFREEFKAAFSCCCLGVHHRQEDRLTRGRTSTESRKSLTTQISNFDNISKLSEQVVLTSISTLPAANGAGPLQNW
# Text: OX2R occupancy in transgenic rats expressing human Hcrtr2 cDNA via the rat enolase promoter in radioligand-binding displacement assays have been described previously. […] Normalized curves where the maximum occupancy value was defined as 100% relative to maximal observed plasma were constructed by fitting data to a one-site binding (hyperbola) curve (GraphPad Prism® v. 6.04, San Diego, CA, USA).
# [3] = healthy subjects, two highest doses (120, 250 mg)
# [4] = rats, 2 hours following treatment vs vehicle
compound,measurement,setting,value
"COc1ccc(CNC(=O)c2cc(-c3cncc(Cl)c3)cnc2-c2ccccn2)nc1OC [MK-1064, 5″-chloro-N-[(5,6-dimethoxypyridin-2-yl)methyl]-2,2′:5′, 3″-terpyridine-3′-carbo xamide]",expected unbound drug levels at 1 hour (~Tmax),[1]; 20 mg/kg oral,approximately 4.4 μM
same,Cmax,[1]; 1 mg/kg oral,1 µM
same,Tmax,[1]; 1 mg/kg oral,18 min
same,AUC(0-t),"[1]; 1 mg/kg oral, read-out: AUC0–24",3.4 µM·h
same,Cmax,[1]; 20 mg/kg oral,15.3 µM
same,Tmax,[1]; 20 mg/kg oral,48 min
same,AUC(0-t),"[1]; 20 mg/kg oral, read-out: AUC0-24",56.5 µM·h
same,MK-1064-related AE dizziness,[2],1 subject
same,MK-1064-related AE headache,[2],3 subjects
same,MK-1064-related AE nightmares,[2],2 subjects
same,clinical AEs reported,[2],24
same,reports of transient sleep paralysis,[2]; 250 mg,One
same,subjects reporting ≥1 clinical AE,"[2]; 20 subjects enrolled, crossover 50, 120, 250 mg and placebo",13 subjects
same,clinical AEs considered to be related to study treatment,[2]; all mild or moderate,18
same,time spent in Stage 2,"sleep; healthy subjects, 120 mg",significant increase
same,LPS as fraction of placebo response,"sleep; healthy subjects, 50, 120 and 250 mg (all doses)",significant reductions
same,WASO as fraction of placebo response,sleep; [3],significant reductions
same,reduction in LREM versus placebo,sleep; [3],statistically significant
same,NREM sleep,"sleep; healthy subjects, two lower doses (50, 120 mg)",increases in NREM sleep
same,time spent in Stage 1 and SWS,"sleep; healthy subjects, vs placebo",not significantly different from placebo
same,OX2R occupancy at which significant reductions in active wake were observed,OX2R; in vivo,94% and 97%
same,OX2R occupancy at which changes in REM sleep occurred,OX2R; [4],94%
same,OX2R occupancy at which no significant reduction in active wake was observed,OX2R; [4],89%
same,OX2R occupancy at which significant SWS changes were induced,OX2R; [4],97%
